From ChEMBL document CHEMBL1201862, “PubChem BioAssay data set” (2004) come the findings set out here.

Experiment [1] deals with Peroxisome proliferator-activated receptor gamma/Nuclear receptor coactivator 2 (Homo sapiens, UniProt P37231). It counts as functional.
Experiment [2] addresses Peroxisome proliferator-activated receptor gamma/Nuclear receptor coactivator 1 (Homo sapiens, UniProt P37231). It counts as functional.
Experiment [3] deals with Peroxisome proliferator-activated receptor gamma/Nuclear receptor coactivator 3 (Homo sapiens, UniProt P37231). It counts as functional.
For experiment [4], the target named is Ion channel NompC (Danio rerio, UniProt Q7T1G6). In words: Fluorescence counterscreen assay for TRPML3 agonists: dose response cell-based high-throughput screening assay to identify agonists of the transient receptor potential channel N1 (TRPN1). [Related pubchem assays: 1526, 1424, 1448 ]. It counts as functional. In general terms: The purpose of a counterscreen is to sort out artefacts and off-target activity.
Ion channel NompC, sequence (Q7T1G6 whole entry): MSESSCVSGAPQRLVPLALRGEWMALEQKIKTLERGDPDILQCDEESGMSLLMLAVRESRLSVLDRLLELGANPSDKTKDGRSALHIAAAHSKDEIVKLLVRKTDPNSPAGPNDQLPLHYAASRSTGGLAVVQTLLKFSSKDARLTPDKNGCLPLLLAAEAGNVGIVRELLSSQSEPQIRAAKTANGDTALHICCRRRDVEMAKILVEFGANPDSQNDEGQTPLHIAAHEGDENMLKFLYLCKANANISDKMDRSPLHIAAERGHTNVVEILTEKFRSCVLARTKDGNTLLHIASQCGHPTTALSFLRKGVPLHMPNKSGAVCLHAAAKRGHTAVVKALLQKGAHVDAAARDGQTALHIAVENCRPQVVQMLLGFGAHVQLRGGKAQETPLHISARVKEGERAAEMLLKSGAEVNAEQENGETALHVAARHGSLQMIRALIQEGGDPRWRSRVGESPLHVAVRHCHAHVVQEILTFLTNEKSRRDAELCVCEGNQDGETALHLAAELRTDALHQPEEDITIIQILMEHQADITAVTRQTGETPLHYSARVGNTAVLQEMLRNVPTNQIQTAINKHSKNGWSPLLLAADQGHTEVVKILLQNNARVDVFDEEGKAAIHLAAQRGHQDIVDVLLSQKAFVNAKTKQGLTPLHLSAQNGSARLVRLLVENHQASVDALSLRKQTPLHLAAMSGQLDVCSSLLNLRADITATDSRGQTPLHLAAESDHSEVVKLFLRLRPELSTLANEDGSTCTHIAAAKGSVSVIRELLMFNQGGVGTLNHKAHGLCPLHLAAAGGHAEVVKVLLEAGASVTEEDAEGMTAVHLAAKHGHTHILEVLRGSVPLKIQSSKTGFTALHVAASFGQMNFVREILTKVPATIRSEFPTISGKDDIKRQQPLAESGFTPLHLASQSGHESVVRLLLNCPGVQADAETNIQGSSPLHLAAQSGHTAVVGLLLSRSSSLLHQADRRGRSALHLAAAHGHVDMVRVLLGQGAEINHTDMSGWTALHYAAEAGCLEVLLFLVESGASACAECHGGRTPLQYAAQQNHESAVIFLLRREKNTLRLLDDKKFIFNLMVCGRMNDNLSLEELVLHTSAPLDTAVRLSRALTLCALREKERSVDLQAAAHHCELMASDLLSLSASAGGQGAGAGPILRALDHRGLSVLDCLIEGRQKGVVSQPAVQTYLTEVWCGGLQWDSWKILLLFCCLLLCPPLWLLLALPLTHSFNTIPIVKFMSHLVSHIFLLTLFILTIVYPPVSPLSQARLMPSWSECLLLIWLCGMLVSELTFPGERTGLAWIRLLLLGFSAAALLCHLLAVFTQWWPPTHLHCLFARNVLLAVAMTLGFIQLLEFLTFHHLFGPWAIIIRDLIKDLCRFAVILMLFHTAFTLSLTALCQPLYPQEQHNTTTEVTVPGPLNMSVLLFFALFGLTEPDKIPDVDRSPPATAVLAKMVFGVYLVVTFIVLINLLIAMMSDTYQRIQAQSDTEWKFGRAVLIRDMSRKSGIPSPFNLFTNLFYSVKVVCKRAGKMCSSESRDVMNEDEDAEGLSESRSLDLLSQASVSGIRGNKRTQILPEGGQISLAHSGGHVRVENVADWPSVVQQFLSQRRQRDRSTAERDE

Experiment [5] addresses Mucolipin-3 (Homo sapiens, UniProt Q8TDD5). In words: Dose response cell-based high-throughput screening assay for agonists of the transient receptor potential channel ML3 (TRPML3). [Related pubchem assays: 1526, 1424, 1448 ]. It counts as functional.
Experiment [6] deals with Neuropeptide Y receptor type 1 (Homo sapiens, UniProt P25929). It counts as functional.
Neuropeptide Y receptor type 1, sequence (P25929 whole entry): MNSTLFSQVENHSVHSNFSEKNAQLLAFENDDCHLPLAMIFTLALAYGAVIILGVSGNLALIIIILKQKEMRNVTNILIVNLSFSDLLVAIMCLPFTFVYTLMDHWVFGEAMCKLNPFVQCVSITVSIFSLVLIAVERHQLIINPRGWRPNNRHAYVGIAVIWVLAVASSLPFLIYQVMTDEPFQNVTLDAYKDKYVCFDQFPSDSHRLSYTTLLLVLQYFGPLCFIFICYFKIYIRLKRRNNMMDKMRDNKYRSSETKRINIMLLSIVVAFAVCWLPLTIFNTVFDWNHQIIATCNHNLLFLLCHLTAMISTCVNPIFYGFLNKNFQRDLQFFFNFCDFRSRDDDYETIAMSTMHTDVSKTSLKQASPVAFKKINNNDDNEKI
In experiment [7] the target is Neuropeptide Y receptor type 2 (Homo sapiens, UniProt P49146). Type of experiment: functional, cell-based.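 Note: HEK293 cells expressing the receptor and a CNG channel; stimulus was NPY near EC95 followed by isoproterenol to raise cAMP; antagonist potency measured as restoring cAMP signal that NPY suppresses.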
Neuropeptide Y receptor type 2, sequence (P49146 whole entry): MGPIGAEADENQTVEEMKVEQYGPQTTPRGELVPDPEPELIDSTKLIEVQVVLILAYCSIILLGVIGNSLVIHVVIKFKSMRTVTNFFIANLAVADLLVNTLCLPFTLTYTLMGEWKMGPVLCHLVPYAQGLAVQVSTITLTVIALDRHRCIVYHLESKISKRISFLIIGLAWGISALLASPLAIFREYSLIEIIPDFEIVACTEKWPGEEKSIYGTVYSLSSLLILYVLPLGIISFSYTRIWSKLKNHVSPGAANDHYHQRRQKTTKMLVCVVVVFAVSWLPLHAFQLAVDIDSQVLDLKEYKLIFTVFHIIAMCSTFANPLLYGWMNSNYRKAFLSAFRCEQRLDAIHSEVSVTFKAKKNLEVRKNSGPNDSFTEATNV
Experiment [8] addresses T1, Mannose-6-phosphate isomerase (Homo sapiens, UniProt P34949).
T1 sequence (P34949 whole entry): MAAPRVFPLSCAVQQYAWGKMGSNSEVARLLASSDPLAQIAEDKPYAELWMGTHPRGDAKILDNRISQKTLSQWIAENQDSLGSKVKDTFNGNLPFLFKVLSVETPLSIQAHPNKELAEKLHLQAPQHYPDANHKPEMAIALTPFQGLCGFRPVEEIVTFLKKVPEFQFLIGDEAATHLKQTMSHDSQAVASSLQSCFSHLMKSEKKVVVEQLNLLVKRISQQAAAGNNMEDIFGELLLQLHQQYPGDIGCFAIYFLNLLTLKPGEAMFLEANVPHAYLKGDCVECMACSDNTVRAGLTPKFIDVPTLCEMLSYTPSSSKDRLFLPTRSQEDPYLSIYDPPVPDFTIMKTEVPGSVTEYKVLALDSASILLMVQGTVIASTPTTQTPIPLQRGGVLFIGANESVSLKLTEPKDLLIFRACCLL
In words: inhibitors of human PMI, primary screen, biochemical, fluorescence intensity, coupled assay (AID 1209).

Experiment [9] is described as follows: growth suppression of PTEN-null colon cells, dose response, cell-based, HCT116 PTEN knockout (AID 1047).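 Note: HCT116 colon tumor cells with PTEN knocked out; cells exposed to compound for 60 hours before readout; potency for loss of cell viability measured by luminescence.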 It counts as functional.
Experiment [10] in a line: growth suppression of beta-catenin-knockout colon cells, dose response, cell-based, HCT116, human colon tumor (AID 1045).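 Note: HCT116 colon tumor cells with beta catenin knocked out; cells exposed to compound for 60 hours.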 It counts as functional.
Experiment [11] deals with H9c2. In words: cells. Type of experiment: functional, cell-based. The note with it: Rattus norvegicus, H9c2, Myocardium.
Experiment [12] in a line: A Cell Based Secondary Assay To Explore Cytotoxicity of Compounds that Sensitize Mycobacterium Tuberculosis to Beta-Lactam Antibiotics. Type of experiment: functional.
A short description of experiment [13]: cytotoxicity in HPDE-C7 cells, cell-based, fluorescence, HTS (AID 430). Type of experiment: functional. The note with it: Homo sapiens.
Experiment [14] can be described thus: cytotoxicity in KRAS-transformed pancreatic duct cells, primary screen, cell-based, fluorescence, HTS (AID 431).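 Note: cell line used: HPDE-C7K.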 Type of experiment: functional. The note with it: Homo sapiens.
Experiment [15] deals with Streptococcus sp. 'group A'. In words: growth inhibition of control SK(-) GAS strain, dose response, counter-screen for streptokinase expression inhibitor project, luminescence, kanamycin, BacTiterGlo, confirmation (AID 1900). It counts as functional, organism-based.
For experiment [16], the system named is Streptococcus. In words: Group A Streptococcus viability loss, dose response, counter-screen for streptokinase expression inhibitor project, luminescence, BacTiterGlo (AID 1915).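 Note: potency for reduction of bacterial viability or growth.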 Type of experiment: functional, organism-based.
In experiment [17] the target is Glyceraldehyde-3-phosphate dehydrogenase (Homo sapiens, UniProt P04406).
Experiment [18] addresses T2, Bcl-2-like protein 10 (Homo sapiens, UniProt Q9HD36).
T2 sequence (Q9HD36 whole entry): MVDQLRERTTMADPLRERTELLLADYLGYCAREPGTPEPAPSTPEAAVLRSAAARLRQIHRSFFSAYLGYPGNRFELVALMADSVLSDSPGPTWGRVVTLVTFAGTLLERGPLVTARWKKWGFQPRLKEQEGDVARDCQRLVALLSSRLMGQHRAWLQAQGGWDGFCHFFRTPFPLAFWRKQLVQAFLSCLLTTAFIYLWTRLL
In words: displacers of TR3 peptide from Bcl-B, primary screen, selectivity assay for Bfl-1 inhibitor project, biochemical, fluorescence polarization, FITC-TR3 peptide (AID 748).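 Note: fluorescence polarization from a fluorescein-labelled TR3 peptide binding purified Bcl-B.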

For experiment [19], the target named is T3, Estrogen receptor beta (Homo sapiens, UniProt Q92731). In words: ERβ–SRC-3 coactivator interaction inhibitors, confirmation, orthogonal assay, biochemical, ELISA, streptavidin-HRP readout (AID 1060). In general terms: An ELISA detects its analyte on a solid surface through an enzyme-linked reagent.
T3 sequence (Q92731 whole entry): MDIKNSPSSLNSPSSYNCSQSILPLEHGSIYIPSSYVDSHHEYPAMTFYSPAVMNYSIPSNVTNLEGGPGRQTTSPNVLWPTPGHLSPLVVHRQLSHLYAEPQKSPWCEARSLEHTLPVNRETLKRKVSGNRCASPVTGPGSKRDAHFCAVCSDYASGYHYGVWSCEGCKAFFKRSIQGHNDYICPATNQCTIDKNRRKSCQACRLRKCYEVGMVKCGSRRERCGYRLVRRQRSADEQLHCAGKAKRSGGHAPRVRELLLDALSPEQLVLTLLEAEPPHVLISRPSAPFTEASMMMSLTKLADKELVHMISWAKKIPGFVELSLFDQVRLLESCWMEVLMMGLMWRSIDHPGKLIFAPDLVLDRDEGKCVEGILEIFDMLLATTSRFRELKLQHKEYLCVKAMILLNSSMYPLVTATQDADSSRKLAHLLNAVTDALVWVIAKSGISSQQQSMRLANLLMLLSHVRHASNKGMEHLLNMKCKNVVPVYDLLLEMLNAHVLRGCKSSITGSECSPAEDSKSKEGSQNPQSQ
Experiment [20] deals with T3, Estrogen receptor beta.
The target of experiment [21] is T4, Carboxy-terminal domain RNA polymerase II polypeptide A small phosphatase 1 (Homo sapiens, UniProt Q9GZU7).
T4 sequence (Q9GZU7 whole entry): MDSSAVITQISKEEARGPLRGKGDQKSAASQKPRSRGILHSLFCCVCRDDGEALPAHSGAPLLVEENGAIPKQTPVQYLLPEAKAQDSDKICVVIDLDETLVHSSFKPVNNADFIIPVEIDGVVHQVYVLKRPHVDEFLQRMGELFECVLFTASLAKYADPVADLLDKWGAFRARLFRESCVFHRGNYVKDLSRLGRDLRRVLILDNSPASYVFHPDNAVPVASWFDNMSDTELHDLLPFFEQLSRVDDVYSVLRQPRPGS
In words: inhibitors of CTDSP1, concentration-response testing, biochemical assay, absorbance-based, actives from ultra-high-throughput screening (AID 540297). It counts as functional.

For experiment [22], the target named is T5, Aryl hydrocarbon receptor (Homo sapiens, UniProt P35869).
T5 sequence (P35869 whole entry): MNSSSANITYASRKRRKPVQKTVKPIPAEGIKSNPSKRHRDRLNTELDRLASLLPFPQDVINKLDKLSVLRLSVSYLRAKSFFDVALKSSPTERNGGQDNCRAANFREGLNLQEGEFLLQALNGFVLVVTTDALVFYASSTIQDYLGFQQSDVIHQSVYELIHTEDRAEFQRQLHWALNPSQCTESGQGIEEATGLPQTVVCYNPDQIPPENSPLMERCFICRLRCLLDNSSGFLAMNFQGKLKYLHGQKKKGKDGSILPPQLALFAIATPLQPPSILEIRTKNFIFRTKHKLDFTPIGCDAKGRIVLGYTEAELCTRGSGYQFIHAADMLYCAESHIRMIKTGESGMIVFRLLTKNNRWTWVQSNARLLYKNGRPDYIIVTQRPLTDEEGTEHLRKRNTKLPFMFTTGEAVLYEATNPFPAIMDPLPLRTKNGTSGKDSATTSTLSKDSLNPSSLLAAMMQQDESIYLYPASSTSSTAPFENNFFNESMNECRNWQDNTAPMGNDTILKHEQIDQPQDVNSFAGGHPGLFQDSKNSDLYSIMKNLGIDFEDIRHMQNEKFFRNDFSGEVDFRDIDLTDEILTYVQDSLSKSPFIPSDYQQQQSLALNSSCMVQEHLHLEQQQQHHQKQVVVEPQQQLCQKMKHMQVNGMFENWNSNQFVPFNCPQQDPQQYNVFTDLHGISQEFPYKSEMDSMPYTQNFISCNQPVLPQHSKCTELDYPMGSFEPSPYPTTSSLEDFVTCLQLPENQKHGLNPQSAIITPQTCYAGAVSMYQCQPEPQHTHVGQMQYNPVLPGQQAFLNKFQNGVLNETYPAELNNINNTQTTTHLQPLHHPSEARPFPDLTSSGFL
In words: Luminescence-based cell-based high throughput dose response assay for activators of the Aryl Hydrocarbon Receptor (AHR). [Related pubchem assays: 2796 (Primary screen (AHR activators in singlicate)), 2845 (Confirmation screen (AHR activators in triplicate)), 434939 (Counterscreen (PXR activators in triplicate)), 2804 (Summary (AHR activators))]. Type of experiment: ADME.

Experiment [23] concerns the target Transitional endoplasmic reticulum ATPase (Homo sapiens, UniProt P55072). In words: Luminescence dose response biochemical high throughput screening assay for inhibitors of the p97 ATPase: synthesized compounds. [Related pubchem assays: 1481, 1517 ].
The target of experiment [24] is Transitional endoplasmic reticulum ATPase (Homo sapiens, UniProt P55072, C522A). In words: Luminescence counterscreen assay for p97 inhibitors: dose response biochemical high throughput screening assay to identify inhibitors of the C522A mutant p97 ATPase: synthesized compounds. [Related pubchem assays: 1481, 1517, 1551 ].
Transitional endoplasmic reticulum ATPase (Homo sapiens, UniProt P55072, C522A), sequence (P55072 2-806 C522A limits assumed): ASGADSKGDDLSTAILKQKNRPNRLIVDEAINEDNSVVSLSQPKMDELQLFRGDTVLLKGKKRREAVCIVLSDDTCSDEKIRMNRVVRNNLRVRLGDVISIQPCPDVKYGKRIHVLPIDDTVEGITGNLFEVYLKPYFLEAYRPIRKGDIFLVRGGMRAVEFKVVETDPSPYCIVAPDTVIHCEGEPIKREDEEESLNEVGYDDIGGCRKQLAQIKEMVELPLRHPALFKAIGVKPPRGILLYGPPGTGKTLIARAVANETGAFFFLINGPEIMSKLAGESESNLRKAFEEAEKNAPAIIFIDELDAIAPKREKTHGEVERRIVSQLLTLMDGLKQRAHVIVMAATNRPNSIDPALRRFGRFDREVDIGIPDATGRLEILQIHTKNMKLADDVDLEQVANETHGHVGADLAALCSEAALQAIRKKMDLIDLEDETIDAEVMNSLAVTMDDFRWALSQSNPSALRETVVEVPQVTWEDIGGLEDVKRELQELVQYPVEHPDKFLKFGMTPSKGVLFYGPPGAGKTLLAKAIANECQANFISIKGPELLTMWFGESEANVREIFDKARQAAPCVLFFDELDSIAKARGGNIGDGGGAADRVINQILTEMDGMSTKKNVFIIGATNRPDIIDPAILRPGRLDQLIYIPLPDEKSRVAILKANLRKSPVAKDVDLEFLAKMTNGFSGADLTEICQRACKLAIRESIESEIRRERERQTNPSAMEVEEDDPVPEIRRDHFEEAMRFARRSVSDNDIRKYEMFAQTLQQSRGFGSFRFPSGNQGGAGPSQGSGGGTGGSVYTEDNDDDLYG
Experiment [25] can be described thus: Luminescence-based cell-based high throughput dose response assay to identify activators of the DAF-12 from the parasite S. stercoralis (ssDAF-12). It counts as functional.
Experiment [26] relates to HT-1080. In words: cytotoxicity in HT1080 fibrosarcoma cells, cell-based, fluorescence readout (AID 620). It counts as functional. The note with it: Homo sapiens.
The target of experiment [27] is Luciferin 4-monooxygenase (Photinus pyralis, UniProt P08659). In words: Counter Screen for Luciferase-based Assay Positives. [Related pubchem assays: 620, 618, 411 ].
Experiment [28] deals with T6, Oxysterols receptor LXR-beta (Homo sapiens, UniProt P55055).
T6 sequence (P55055 whole entry): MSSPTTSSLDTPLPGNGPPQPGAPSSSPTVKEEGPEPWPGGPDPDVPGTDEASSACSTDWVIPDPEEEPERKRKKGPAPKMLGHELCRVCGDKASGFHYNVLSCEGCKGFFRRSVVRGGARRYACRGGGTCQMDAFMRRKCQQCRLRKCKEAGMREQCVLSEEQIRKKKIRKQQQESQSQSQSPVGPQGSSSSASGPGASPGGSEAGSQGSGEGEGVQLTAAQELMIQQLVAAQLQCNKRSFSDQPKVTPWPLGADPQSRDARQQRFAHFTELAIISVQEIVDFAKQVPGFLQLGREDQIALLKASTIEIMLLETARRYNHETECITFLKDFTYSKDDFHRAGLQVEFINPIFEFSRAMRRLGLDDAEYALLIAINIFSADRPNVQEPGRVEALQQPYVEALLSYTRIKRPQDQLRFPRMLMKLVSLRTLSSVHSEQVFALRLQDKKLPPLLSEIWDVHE
In words: LXR agonists, Gal4 luciferase reporter, dose response, counter-screen for ssDAF-12 agonist project, cell-based, luminescence, HEK293, S. stercoralis campaign (AID 720737). It counts as functional. The note with it: read-out: IC50 (the source's name). (In general: Reporter assays use an easily measured gene product as a stand-in for the process of interest.)

Experiment [29] has as its target Protein-tyrosine kinase 2-beta (Homo sapiens, UniProt Q14289).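 Note: potency of inhibitors of PYK2 kinase phosphorylation of poly-GT substrate.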
Experiment [30] concerns the target Lysosomal acid glucosylceramidase (Homo sapiens, UniProt P04062). In words: Dose response cell-based high throughput screening assay to identify enhancers of beta-glucosidase activity. [Related pubchem assays: 784 ]. It counts as functional.

As usually defined, the IC50 is the concentration needed to halve the response being measured. What is called CC50 is the concentration that lowers cell viability or growth by half.

The structures appear in SMILES notation. Active and inactive are the calls of the source. Some results are limits rather than exact numbers.

Transitional endoplasmic reticulum ATPase (Homo sapiens, UniProt P55072), sequence (P55072 whole entry): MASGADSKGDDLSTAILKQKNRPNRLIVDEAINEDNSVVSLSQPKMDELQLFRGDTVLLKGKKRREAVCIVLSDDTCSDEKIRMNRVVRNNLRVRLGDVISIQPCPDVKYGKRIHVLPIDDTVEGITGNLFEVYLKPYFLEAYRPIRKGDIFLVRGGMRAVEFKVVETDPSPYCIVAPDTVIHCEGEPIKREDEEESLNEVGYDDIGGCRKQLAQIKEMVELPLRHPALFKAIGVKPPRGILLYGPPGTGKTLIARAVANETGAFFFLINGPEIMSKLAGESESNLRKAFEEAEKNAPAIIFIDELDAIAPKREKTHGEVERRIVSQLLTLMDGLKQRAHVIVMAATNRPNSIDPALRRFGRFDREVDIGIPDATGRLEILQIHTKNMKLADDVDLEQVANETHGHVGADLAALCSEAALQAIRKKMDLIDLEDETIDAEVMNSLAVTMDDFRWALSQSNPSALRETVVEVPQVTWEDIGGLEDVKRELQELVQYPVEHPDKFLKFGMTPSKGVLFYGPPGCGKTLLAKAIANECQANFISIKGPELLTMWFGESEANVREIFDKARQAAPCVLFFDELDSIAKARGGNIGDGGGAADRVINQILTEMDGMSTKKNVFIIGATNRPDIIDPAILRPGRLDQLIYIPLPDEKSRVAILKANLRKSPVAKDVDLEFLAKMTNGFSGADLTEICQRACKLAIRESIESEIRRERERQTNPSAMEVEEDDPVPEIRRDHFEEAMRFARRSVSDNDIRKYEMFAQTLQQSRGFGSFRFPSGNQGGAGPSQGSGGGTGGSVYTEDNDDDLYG
Lysosomal acid glucosylceramidase, sequence (P04062 whole entry): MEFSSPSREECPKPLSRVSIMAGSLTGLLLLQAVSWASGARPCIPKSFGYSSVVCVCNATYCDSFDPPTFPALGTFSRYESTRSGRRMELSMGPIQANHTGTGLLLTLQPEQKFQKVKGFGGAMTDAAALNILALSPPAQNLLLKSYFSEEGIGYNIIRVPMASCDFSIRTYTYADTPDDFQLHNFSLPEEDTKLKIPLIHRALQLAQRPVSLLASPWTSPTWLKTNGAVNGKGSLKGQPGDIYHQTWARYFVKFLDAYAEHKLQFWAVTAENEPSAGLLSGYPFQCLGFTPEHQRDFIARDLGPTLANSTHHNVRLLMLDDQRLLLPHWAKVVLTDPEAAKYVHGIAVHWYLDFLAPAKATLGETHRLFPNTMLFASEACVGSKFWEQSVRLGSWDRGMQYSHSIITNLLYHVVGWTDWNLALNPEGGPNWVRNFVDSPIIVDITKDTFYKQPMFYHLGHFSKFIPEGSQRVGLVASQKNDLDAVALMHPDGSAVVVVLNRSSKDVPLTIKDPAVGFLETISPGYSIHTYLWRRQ

Consider `O=C1c2cccc(OCC(=O)N3CCCc4ccccc43)c2CCN1Cc1ccccc1`, for which the EC50 in experiment [1], in experiment [2] and in experiment [3] was > 79.4 µM (not active) throughout.
For the molecule `COc1cccc(CN(Cc2ccco2)C(c2ccc(F)cc2)c2nnnn2C(C)(C)C)c1` (configuration not stated), the EC50 in experiment [4] and in [5] was > 29.9 µM (not active) throughout.
As to `COC(=O)c1ccc(CSc2nc3sc4c(c3c(=O)n2C)CCCC4)o1`, the IC50 in experiment [6] was 6.95 µM (active); in experiment [7] it was 6.21 µM (active).
In the case of `Cc1ccc([N+](=O)[O-])c(C)[n+]1C`, in experiment [8], the IC50 is > 50 µM (not active).
As to `CCOC(=O)C1=C(C)N=c2s/c(=C\c3ccncc3)c(=O)n2C1c1ccc2c(c1)OCO2` (configuration not stated), the EC50 was 10.5 µM (active) in experiment [9], 10.2 µM (active) in experiment [10], 16.3 µM (active) in [13] and 11 µM (active) in experiment [14]. For the same molecule, the IC50 in [11] is > 79 µM (inactive). Moreover, the CC50 in experiment [12] is > 40 µM (active).
In the case of `COc1ccc(C(=O)/C=C/c2ccc(O)cc2)c(O)c1CC=C(C)C`, the EC50 in [15] is 2.71 µM (active); in [16] it was 3.01 µM (active). In addition, the CC50 in experiment [12] is > 40 µM (active).
For `C[C@@H]1CN(C2=C(Cl)C(=O)N(c3ccc(C(F)(F)F)cc3)C2=O)CCN1`, in experiment [17], the IC50 is > 50 µM (inconclusive).
With `COc1ccc2c(c1)c(=O)oc1cc(OCC(=O)N3CCc4ccccc4C3)ccc12`, the IC50 in [18] is 29.8 µM (active); in experiment [19] it was 5.58 µM (active); in [20], > 50 µM (not active); in [21], 2.9 µM (active).
For `CCOC(=O)c1oc2ccccc2c1N`, the EC50 in experiment [22] was 7.43 µM (active).
Take `CCOC(=O)/C(C#N)=C/c1sc2ccccc2c1-c1ccccc1`: the IC50 in experiment [23] and in experiment [24] was > 50 µM (not active) each time.
As to `CN(C)Cc1ccccc1Sc1cccc2ccccc12`, the results for the IC50 in [6] and in experiment [7] were 6.03 µM (active) and 9.22 µM (active), respectively.
As for `O=C1c2ccccc2C(=O)C1c1ccnc2ccccc12`, the IC50 in experiment [25] is > 67.5 µM (inactive); in experiment [29] it was 4.75 µM (active). The EC50 in experiment [26] is > 50 µM (not active); in experiment [27] it was 3.42 µM (active); in [28], > 67.5 µM (inactive).
Consider `CCOC(=O)NC(CC(=O)O)c1ccc(OCC)cc1` (configuration not stated), for which the EC50 in [30] is recorded as > 50 µM (not active).
In the case of `Cc1cc(-c2csc(Nc3ccc(C#N)cc3)n2)c(C)n1Cc1ccccc1`, the IC50 in experiment [23] and in experiment [24] was > 50 µM (not active) in each case.
With `CCOc1ccccc1CNS(=O)(=O)c1ccc2nc(O)sc2c1`, the EC50 in experiment [30] is > 10 µM (not active).
Consider `Cc1ccc2cc3c(NC(=O)CC(C)C)nn(C)c3nc2c1`, for which the EC50 in experiment [22] is 0.476 µM (active).
